According to ChEMBL document CHEMBL1149134, “2-aminothiazole-derived opioids. Bioisosteric replacement of phenols” (J Med Chem, 2004):
pEC50, pKi: −log10 of the molar value.

Columns and labels:
Mu-type opioid receptor [1] = target: T1, Mu-type opioid receptor (Homo sapiens, UniProt P35372); parameters: species or system Cricetulus griseus
Description: Inhibition of [3H]-DAMGO binding to Opioid receptor mu 1 of Chinese hamster ovary membrane

[2] = target: Delta-type opioid receptor (Homo sapiens, UniProt P41143); test: Inhibition of [3H]naltrindole binding to opioid receptor delta 1 of Chinese hamster ovary membrane; parameters: species or system Cricetulus griseus
[3] = target: T2, Kappa-type opioid receptor (Homo sapiens, UniProt P41145); parameters: species or system Cricetulus griseus
Description: Inhibition of [3H]U-69593 binding to Opioid receptor kappa 1 of Chinese hamster ovary membrane

[4] = target: T2, Kappa-type opioid receptor; test: Agonistic activity against kappa opioid receptor in Chinese hamster ovary membranes; format: functional, cell membranes, Cricetulus griseus
[5] = target: T2, Kappa-type opioid receptor; test: Binding ability against kappa opioid receptor by stimulating the [35S]GTP-gamma-S, radioligand in Chinese hamster ovary membranes; format: functional, cell membranes; details: Cricetulus griseus
Mu-type opioid receptor [6] = target: T1, Mu-type opioid receptor
Description: Agonistic activity against Opioid receptor mu 1 in Chinese hamster ovary membranes

Sequence of Delta-type opioid receptor (P41143 whole entry): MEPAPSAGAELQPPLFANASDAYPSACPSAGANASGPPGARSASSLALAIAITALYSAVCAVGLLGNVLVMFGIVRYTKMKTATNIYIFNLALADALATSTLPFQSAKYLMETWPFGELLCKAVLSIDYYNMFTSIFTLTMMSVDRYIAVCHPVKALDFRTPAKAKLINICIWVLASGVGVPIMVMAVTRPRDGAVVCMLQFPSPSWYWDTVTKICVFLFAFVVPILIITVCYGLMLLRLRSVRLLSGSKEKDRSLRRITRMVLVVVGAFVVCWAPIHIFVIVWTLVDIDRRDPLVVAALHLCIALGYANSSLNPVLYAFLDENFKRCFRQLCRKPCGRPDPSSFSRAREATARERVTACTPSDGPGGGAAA
T2 sequence (P41145 whole entry): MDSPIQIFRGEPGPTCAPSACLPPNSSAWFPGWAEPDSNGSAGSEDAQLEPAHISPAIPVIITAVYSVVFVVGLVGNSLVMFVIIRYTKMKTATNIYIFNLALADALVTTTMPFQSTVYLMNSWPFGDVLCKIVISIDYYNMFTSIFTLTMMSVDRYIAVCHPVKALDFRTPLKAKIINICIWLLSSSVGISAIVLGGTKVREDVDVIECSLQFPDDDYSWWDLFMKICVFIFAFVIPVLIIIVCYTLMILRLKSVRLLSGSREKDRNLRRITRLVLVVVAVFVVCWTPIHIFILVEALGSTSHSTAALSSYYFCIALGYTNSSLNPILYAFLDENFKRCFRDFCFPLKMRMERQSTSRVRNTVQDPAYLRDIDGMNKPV
T1 sequence (P35372 whole entry): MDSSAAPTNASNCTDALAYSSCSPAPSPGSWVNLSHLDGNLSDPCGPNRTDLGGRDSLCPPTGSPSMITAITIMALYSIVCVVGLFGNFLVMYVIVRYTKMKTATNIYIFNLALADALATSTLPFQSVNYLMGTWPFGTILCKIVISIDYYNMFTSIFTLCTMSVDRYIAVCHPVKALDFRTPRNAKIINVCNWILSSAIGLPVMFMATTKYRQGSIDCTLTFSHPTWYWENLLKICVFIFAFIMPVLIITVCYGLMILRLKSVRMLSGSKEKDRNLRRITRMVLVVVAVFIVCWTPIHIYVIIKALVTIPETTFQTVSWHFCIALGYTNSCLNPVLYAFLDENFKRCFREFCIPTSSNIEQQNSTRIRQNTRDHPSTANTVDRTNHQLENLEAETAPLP

## Nc1nc2cc3c(cc2s1)C(=O)[C@@H]1C2CCCC[C@]32CCN1CC1CCC1 (some centres not stated)
Mu-type opioid receptor [1]
  pKi: 6.70
[2]
  pKi: < 5.00
[3]
  pKi: 7.89

## CN1CC[C@]23c4c5cc6sc(N)nc6c4O[C@H]2[C@@H](O)CCC3[C@H]1C5 (some centres not stated)
Mu-type opioid receptor [1]
  pKi: 7.52
[2]
  pKi: 7.49
[3]
  pKi: 6.66

## C[C@H]1[C@H]2Cc3cc4sc(N)nc4cc3[C@]1(C)CCN2CC1CCC1
Mu-type opioid receptor [1]
  pKi: 8.08
[2]
  pKi: 7.03
[3]
  pKi: 9.31

## CN1CC[C@]23CCCC[C@H]2[C@H]1Cc1cc2sc(N)nc2cc13 (stereo in doubt; 4)
Mu-type opioid receptor [1]
  pKi: 8.96
[2]
  pKi: 6.72
[3]
  pKi: 8.19

## Nc1nc2cc3c(cc2s1)C[C@@H]1[C@@H]2CCCC[C@]32CCN1CC1CC1
[4]
  pEC50: 8.62
[5]
  Emax: 80%
Mu-type opioid receptor [6]
  pEC50: 7.14

## Nc1nc2cc3c(cc2s1)C[C@@H]1[C@@H]2CCCC[C@]32CCN1CC1CCC1
[4]
  pEC50: 7.54
[5]
  Emax: 80%

## C[C@H]1[C@H]2Cc3cc4sc(N)nc4cc3[C@]1(C)CCN2CC1CC1
Mu-type opioid receptor [1]
  pKi: 7.32
[2]
  pKi: 6.03
[3]
  pKi: 8.17

## C[C@H]1C2Cc3ccc(O)cc3[C@]1(C)CCN2CC1CC1
[2]
  pKi: 8.96
[3]
  pKi: 9.74
